We go through two compounds from patent US6951733B2, “Method for testing drug susceptibility of Mycobacterium tuberculosis” (priority 2000, dated 2005).

Several values for one entry are separate records, joined by “and”; a condition that tells them apart may be missing. Equal entries are not always repeated. Where two headings read alike, the source gives them in different places. Some results are limits rather than exact numbers.

For assay [1], the system named is 13 M. tuberculosis pan-susceptible strains. Put plainly: MIC determination on HSTB agar, susceptible strains. The format is cell-based.
In assay [2] the test system is ten strains previously identified as INH-resistant. Put plainly: microbe, parasite or virus in culture. The following applies: Mycobacterium tuberculosis, HSTB agar; greater than 3.2 eight strains, 1.6 one strain. The class given is cell-based, M. tuberculosis.
Assay [3] has as its system strain 9719. Put plainly: microbe, parasite or virus in culture. The class given is cell-based, M. tuberculosis. The following applies: read-out: MIC (μg/ml) BACTEC.
Assay [4] has as its system 55 M. tuberculosis clinical isolates. The class given is cell-based.
The test system of assay [5] is strain 9719. The class given is cell-based, M. tuberculosis. The following applies: for Proportions (%%) of resistant bacteria as determined by agar plates containing the drug (μg/ml) 300 / Proportions (%%) of resistant bacteria as determined by agar plates containing the drug (μg/ml) 900 / Proportions (%%) of resistant bacteria as determined by agar plates containing the drug (μg/ml) 1200: strain 9719.

The next assay concerns strain H37Rv. The format is cell-based, M. tuberculosis.
Where [6] appears, read: strains Susceptible by the BACTEC 300 μg/ml.
Setting [7] is: strains Susceptible by the BACTEC 900 μg/ml.
The mark [8] stands for this setting: 0% of resistant bacteria incorporated.
The mark [9] stands for this setting: 10% of resistant bacteria incorporated.
Setting [10] is: 25% of resistant bacteria incorporated.
[11] abbreviates: 50% of resistant bacteria incorporated.
[12] abbreviates: 100% of resistant bacteria (resistant mutant).

On to `NNC(=O)c1ccncc1` [INH, isoniazid], for which, in assay [1], the “critical concentration for detection of the high level of resistance” value is 1.0 µg/mL and the “critical concentration for detection of the low level of resistance” value was 0.2 µg/mL. The MIC in assay [2] was greater than 3.2 µg/mL.
Turning to `NC(=O)c1cnccn1` [PZA, pyrazinamide], the MIC is no more than 100 µg/mL with strain 9719 [3] (Mycobacterium tuberculosis, 9719, pH 6, strain 9719, 0% of resistant bacteria incorporated); greater than 900 µg/mL with strain 9719 [3] (Mycobacterium tuberculosis, 9719, pH 6, strain 9719, 10% of resistant bacteria incorporated); greater than 900 µg/mL in the assay on strain 9719 [3] (Mycobacterium tuberculosis, 9719, pH 6, strain 9719, 25% of resistant bacteria incorporated); greater than 900 µg/mL in the assay with strain 9719 [3] (Mycobacterium tuberculosis, 9719, pH 6, strain 9719, 50% of resistant bacteria incorporated). The “Number of strains by the agar proportion method, 900 μg/ml Resistant” value was determined as 27 in assay [4], 0 in assay [4] (setting [6]) and 2 in assay [4] (setting [7]). Moreover, the “Number of strains by the agar proportion method, 1200 μg/ml Resistant” value in assay [4] was 27 and 26; in assay [4] (setting [6]), 0; in assay [4] (setting [7]) it was 1. Besides, the “growth in the agar medium with the drug” value with strain 9719 [5] (pansusceptible strain 9719, all drug-concentrations (300, 900, 1200 μg/ml)) is “completely inhibited”. The “Proportions (%%) of resistant bacteria as determined by agar plates containing the drug (μg/ml) 300” value in the assay on strain 9719 [5] (setting [8]) was 0%; in the assay with strain 9719 [5] (setting [9]), 13.8%; in the assay with strain 9719 [5] (setting [10]), 18.1%; with strain 9719 [5] (setting [11]) it was 35.9%; in the assay with strain 9719 [5] (setting [12]), 97.8%. Moreover, the “Proportions (%%) of resistant bacteria as determined by agar plates containing the drug (μg/ml) 900” value with strain 9719 [5] (setting [8]) came out at 0%; with strain 9719 [5] (setting [9]) it was 8.6%; in the assay with strain 9719 [5] (setting [10]) it was 16.2%; in the assay on strain 9719 [5] (setting [11]) it was 36.9%; with strain 9719 [5] (setting [12]), 96.1%. Moreover, the “Proportions (%%) of resistant bacteria as determined by agar plates containing the drug (μg/ml) 1200” value with strain 9719 [5] (setting [8]) is 0%; in the assay with strain 9719 [5] (setting [9]) it was 8.6%; with strain 9719 [5] (setting [10]), 16.5%; in the assay on strain 9719 [5] (setting [11]), 40.0%; in the assay on strain 9719 [5] (setting [12]), 86.2%. The “MIC (μg/ml) Agar” value with strain H37Rv was 900 µg/mL and >1200 µg/mL.
